# Measurements as given in patent publication US10981913B2, “11C -labeled 06 -benzylguanine, pet probe capable of visualizing 06-methyl guanine methyl-transferase activity, and production method of the same” (NATIONAL CENTER FOR GERIATRICS AND GERONTOLOGY, priority 2016, dated 2021).
# “And” between values parts separate entries of the source, which are not always exact repeats. Equal values may be shown once. “Also recorded” adds a separate entry of the source. Read-outs that look alike come from different tables or passages of the source.
# How the values were obtained:
# MGMT = target: T1, MGMT (Homo sapiens, UniProt P16455); assay: enzyme inhibitory activity against MGMT using fluorescent labeled oligonucleotide substrates; format: biochemical; conditions: FIG. 1
# T1 sequence (P16455 1-207): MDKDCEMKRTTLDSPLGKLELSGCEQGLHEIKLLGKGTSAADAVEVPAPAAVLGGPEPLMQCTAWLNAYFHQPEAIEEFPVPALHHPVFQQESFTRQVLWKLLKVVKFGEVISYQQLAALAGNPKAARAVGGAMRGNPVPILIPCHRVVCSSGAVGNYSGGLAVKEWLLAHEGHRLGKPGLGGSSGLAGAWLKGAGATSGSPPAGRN
# From the text: The introduction position of the [^11C] methyl group of the benzene ring present in the above-mentioned O^6-benzylguanine (1) was investigated. […] Erickson, K. D. Miller, B. H. Mock, B. E. Glick-Wilsob, W. L. Winkel, K. L. Stone, K. A. Carlson, Synth. Commun. 2003, 33, 941-952.
# [1] = Pharmacokinetics test using rats (brain permeability, blood and brain tissue by HPLC); format: in vivo, Sprague-Dawley rats; conditions: rat; for concentration at 30 min / Kp at 0.5 h / Kp at 30 min / concentration at 32 min / concentration at 44 min / Kp: Sprague-Dawley, iv; for concentration at 30 min / Kp at 0.5 h / Kp at 30 min / Brain/Plasma ratio / Conc. HPLC (concentration of compound in brain homogenate) / Conc. brain / concentration at 32 min / concentration at 44 min / Kp: 10 mg/kg; for Kp at 30 min / concentration of the compound in the brain based on the total dose: 30 minutes after administration; for Kp at 30 min: read-out: ratio of brain concentration to the concentration in the plasma; for Brain/Plasma ratio / Conc. HPLC (concentration of compound in brain homogenate) / Conc. brain: listed as mMeBG (2); for metabolism after intravenous administration (plasma concentration of compound and metabolites over time): i.v., FIGS. 7 to 9; for Kp: plasma 30 min
# Experimental: Regarding O^6-(3-methylbenzyl) guanine (2) and O^6-(4-methylbenzyl) guanine (3) not labeled with ^11C synthesized by the above method (that is, cold), brain permeability was evaluated by the following method.
# After intravenous administration (10 mg/kg) of O^6-(3-methylbenzyl) guanine (2) or O^6-(4-methylbenzyl) guanine (3) to Sprague-Dawley rats, blood and brain tissues were collected after a predetermined time, and analyzed by HPLC.
# stability in the plasma = format: in vitro ADME
# [2] = i.v. 10 mg/kg, 30 min, under anaesthesia, fasting, individual animals
# [3] = i.v. 10 mg/kg, 30 min, under anaesthesia, nonfasting, individual animals
# [4] = i.v. 10 mg/kg, 30 min, under nonanaesthesia, fasting, individual animals
# [5] = brain homogenate, i.v. 10 mg/kg, under anaesthesia, fasting, read-out: Conc. HPLC (concentration of compound in brain homogenate)
# [6] = brain, i.v. 10 mg/kg, under anaesthesia, fasting, read-out: Conc. brain
structure (smiles),measurement,setting,value
"Cc1cccc(COc2nc(N)nc3nc[nH]c23)c1 [Compound 2, O^6-(3-methylbenzyl) guanine]",MGMT inhibitory effect compared with O^6-benzylguanine (1),MGMT,MGMT inhibitory effect similar to O^6-benzylguanine (1); also recorded: slightly higher inhibitory activity than O^6-BG (1)
same,concentration at 30 min,"[1]; brain homogenate, i.v. 10 mg/kg, 30 min, under anaesthesia, fasting, average, read-out: Conc. HPLC (brain homogenate), Ave.",513 ng/mL
same,concentration at 30 min,"[1]; brain homogenate, i.v. 10 mg/kg, 30 min, under anaesthesia, fasting, individual animals, read-out: Conc. HPLC (concentration of compound in brain homogenate)",568 ng/mL
same,concentration at 30 min,"[1]; brain homogenate, i.v. 10 mg/kg, 30 min, under anaesthesia, nonfasting, average, read-out: Conc. HPLC (brain homogenate), Ave.",663 ng/mL
same,concentration at 30 min,"[1]; brain homogenate, i.v. 10 mg/kg, 30 min, under anaesthesia, nonfasting, individual animals, read-out: Conc. HPLC (concentration of compound in brain homogenate)",784 ng/mL
same,concentration at 30 min,"[1]; brain homogenate, i.v. 10 mg/kg, 30 min, under nonanaesthesia, fasting, average, read-out: Conc. HPLC (brain homogenate), Ave.",523 ng/mL
same,concentration at 30 min,"[1]; brain homogenate, i.v. 10 mg/kg, 30 min, under nonanaesthesia, fasting, individual animals, read-out: Conc. HPLC (concentration of compound in brain homogenate)",536 ng/mL
same,Kp at 0.5 h,"[1]; brain, i.v. 10 mg/kg, 30 min, under anaesthesia, fasting, average, read-out: Brain/Plasma ratio, Ave.",0.303
same,concentration at 30 min,"[1]; brain, i.v. 10 mg/kg, 30 min, under anaesthesia, fasting, average, read-out: Conc. brain, Ave.",1350 ng/mL
same,Kp at 0.5 h,"[1]; brain, i.v. 10 mg/kg, 30 min, under anaesthesia, fasting, individual animals, read-out: Brain/Plasma ratio",0.336
same,concentration at 30 min,"[1]; brain, i.v. 10 mg/kg, 30 min, under anaesthesia, fasting, individual animals, read-out: Conc. brain",1500 ng/mL
same,Kp at 0.5 h,"[1]; brain, i.v. 10 mg/kg, 30 min, under anaesthesia, nonfasting (plasma value from anaesthesia, fasting rats), average, read-out: Brain/Plasma ratio, Ave.",0.373
same,Kp at 0.5 h,"[1]; brain, i.v. 10 mg/kg, 30 min, under anaesthesia, nonfasting (plasma value from anaesthesia, fasting rats), individual animals, read-out: Brain/Plasma ratio",0.425
same,concentration at 30 min,"[1]; brain, i.v. 10 mg/kg, 30 min, under anaesthesia, nonfasting, average, read-out: Conc. brain, Ave.",1660 ng/mL
same,concentration at 30 min,"[1]; brain, i.v. 10 mg/kg, 30 min, under anaesthesia, nonfasting, individual animals, read-out: Conc. brain",1890 ng/mL
same,Kp at 0.5 h,"[1]; brain, i.v. 10 mg/kg, 30 min, under nonanaesthesia, fasting, average, read-out: Brain/Plasma ratio, Ave.",0.265
same,concentration at 30 min,"[1]; brain, i.v. 10 mg/kg, 30 min, under nonanaesthesia, fasting, average, read-out: Conc. brain, Ave.",1380 ng/mL
same,Kp at 0.5 h,"[1]; brain, i.v. 10 mg/kg, 30 min, under nonanaesthesia, fasting, individual animals, read-out: Brain/Plasma ratio",0.27
same,concentration at 30 min,"[1]; brain, i.v. 10 mg/kg, 30 min, under nonanaesthesia, fasting, individual animals, read-out: Conc. brain",1400 ng/mL
same,Kp at 30 min,"[1]; brain, i.v. 10 mg/kg",0.3
same,concentration at 30 min,"[1]; plasma, average (n = 3), 30 min after i.v. 10 mg/kg of 2, rat under nonanaesthesia and fasting, other rats than brain sample, read-out: Conc. Plasma",5190 ng/mL
same,concentration at 30 min,"[1]; plasma, average (n = 5), 30 min after i.v. 10 mg/kg of 2, rat under anaesthesia and fasting, other rats than brain sample, read-out: Conc. Plasma",4450 ng/mL
same,accumulation in the brain,[1]; i.v. 10 mg/kg,accumulated in the brain
same,Brain/Plasma ratio,[1]; [2],0.275 and 0.298
same,Conc. HPLC (concentration of compound in brain homogenate),[1]; [2],0.464 µg/mL and 0.507 µg/mL
same,Conc. brain,[1]; [2],1.223 µg/mL and 1.325 µg/mL
same,Brain/Plasma ratio,"[1]; i.v. 10 mg/kg, 30 min, under anaesthesia, nonfasting (plasma value from anaesthesia, fasting rats), individual animals",0.398 and 0.296
same,Conc. HPLC (concentration of compound in brain homogenate),[1]; [3],0.684 µg/mL and 0.522 µg/mL
same,Conc. brain,[1]; [3],1.772 µg/mL and 1.318 µg/mL
same,Brain/Plasma ratio,[1]; [4],0.315 and 0.255 and 0.249 and 0.229 and 0.277
same,Conc. HPLC (concentration of compound in brain homogenate),[1]; [4],0.635 µg/mL and 0.474 µg/mL and 0.481 µg/mL and 0.454 µg/mL and 0.555 µg/mL
same,Conc. brain,[1]; [4],1.634 µg/mL and 1.323 µg/mL and 1.291 µg/mL and 1.188 µg/mL and 1.436 µg/mL
same,concentration of the compound in the brain based on the total dose,[1]; i.v. 10 mg/kg,0.1%
same,metabolism after intravenous administration (plasma concentration of compound and metabolites over time),[1],more stable than the compound (3) and was present for a long time
same,stability in the plasma,stability in the plasma,stably exist in the plasma
"Cc1ccc(COc2nc(N)nc3nc[nH]c23)cc1 [Compound 3, O^6-(4-methylbenzyl) guanine]",MGMT inhibitory effect compared with O^6-benzylguanine (1),MGMT,MGMT inhibitory effect similar to O^6-benzylguanine (1); also recorded: slightly higher inhibitory activity than O^6-BG (1)
same,concentration at 32 min,[1]; [5],231 ng/mL
same,concentration at 44 min,[1]; [5],118 ng/mL
same,Kp at 30 min,"[1]; brain, i.v. 10 mg/kg",0.3
same,concentration at 32 min,[1]; [6],959 ng/mL
same,concentration at 44 min,[1]; [6],470 ng/mL
same,Kp,"[1]; brain, i.v. 10 mg/kg, brain 32 min, under anaesthesia, fasting, read-out: Brain/Plasma ratio",0.386
same,Kp,"[1]; brain, i.v. 10 mg/kg, brain 44 min, under anaesthesia, fasting, read-out: Brain/Plasma ratio",0.189
same,concentration at 30 min,"[1]; plasma, average (n = 3), 30 min after i.v. 10 mg/kg of 3, rat under anaesthesia and fasting, other rats than brain sample, read-out: Conc. Plasma",2480 ng/mL
same,accumulation in the brain,[1]; i.v. 10 mg/kg,accumulated in the brain
same,concentration of the compound in the brain based on the total dose,[1]; i.v. 10 mg/kg,0.1%
same,metabolism after intravenous administration (plasma concentration of compound and metabolites over time),[1],"quickly metabolized to unknown, more polar compounds within 240 minutes"
same,stability in the plasma,stability in the plasma,stably exist in the plasma
